Assay results published in ChEMBL document CHEMBL3102717, “Synthesis and biological evaluation of amino acid methyl ester conjugates of 2-cyano-3,12-dioxooleana-1,9(11)-dien-28-oic acid against the production of nitric oxide (NO)” (2014).
Each block holds one compound with its values, some of them ahead of it. Activity calls are given as the source filed them. The calls are words filed in the database; no cut-off is given here.

Tests used:
RAW264.7 [1] = assay: Inhibition of IFN-gamma-induced nitric oxide production in mouse RAW264.7 cells at 30 nM after 24 hrs by Griess method; assay type: functional, cell-based
RAW264.7 [2] = assay: Antioxidant activity in mouse RAW264.7 cells assessed as inhibition of tBHP-induced ROS production at 100 nM pretreated for 18 hrs before challenge measured after 15 mins by H2DCFA-based flow cytometry; assay type: functional, cell-based
RAW264.7 [3] = assay: Antioxidant activity in mouse RAW264.7 cells assessed as inhibition of tBHP-induced ROS production at 10 nM pretreated for 18 hrs before challenge measured after 15 mins by H2DCFA-based flow cytometry; assay type: functional
[4] = Antiproliferative activity against mouse PANC1343 cells assessed as viable cells at 1uM after 72 hrs by MTT assay; assay type: functional; conditions: PANC-1, 72 h, read-out: Activity
[5] = target: T1, Nuclear factor erythroid 2-related factor 2 (Mus musculus) (UniProt Q60795); assay: Induction of Nrf2-mediated HO-1 expression in mouse RAW264.7 cells at 30 to 300 nM after 6 hrs by Western blot method; assay type: cell-based
T1 sequence (whole entry): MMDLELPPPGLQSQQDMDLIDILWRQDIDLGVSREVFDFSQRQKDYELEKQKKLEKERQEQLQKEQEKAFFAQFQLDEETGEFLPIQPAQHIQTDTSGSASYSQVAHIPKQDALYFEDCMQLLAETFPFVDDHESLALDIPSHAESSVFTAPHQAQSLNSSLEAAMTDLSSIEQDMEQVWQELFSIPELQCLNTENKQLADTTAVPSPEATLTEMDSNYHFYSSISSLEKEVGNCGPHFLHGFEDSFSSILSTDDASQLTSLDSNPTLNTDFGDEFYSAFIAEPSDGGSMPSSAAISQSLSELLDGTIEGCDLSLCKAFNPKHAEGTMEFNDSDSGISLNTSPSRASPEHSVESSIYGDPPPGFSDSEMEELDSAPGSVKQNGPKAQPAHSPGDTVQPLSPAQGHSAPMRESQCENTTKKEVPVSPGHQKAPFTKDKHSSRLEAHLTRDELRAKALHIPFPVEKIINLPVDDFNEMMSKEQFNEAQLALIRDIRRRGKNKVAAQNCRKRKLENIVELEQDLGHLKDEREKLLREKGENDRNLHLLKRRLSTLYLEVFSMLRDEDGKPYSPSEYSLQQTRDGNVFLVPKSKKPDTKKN

SMILES: COC(=O)C(CC(C)C)NC(=O)[C@]12CCC(C)(C)C[C@H]1[C@H]1C(=O)C=C3[C@@]4(C)C=C(C#N)C(=O)C(C)(C)[C@@H]4CC[C@@]3(C)[C@]1(C)CC2 (some centres undefined)
inhibition (RAW264.7 [1]): inactive

SMILES: COC(=O)[C@]12CCC(C)(C)C[C@H]1[C@H]1C(=O)C=C3[C@@]4(C)C=C(C#N)C(=O)C(C)(C)[C@@H]4CC[C@@]3(C)[C@]1(C)CC2
inhibition (RAW264.7 [2]): Active

HO-1 expression induction [5]: Active
SMILES: COC(=O)C(CO)NC(=O)[C@]12CCC(C)(C)C[C@H]1[C@H]1C(=O)C=C3[C@@]4(C)C=C(C#N)C(=O)C(C)(C)[C@@H]4CC[C@@]3(C)[C@]1(C)CC2 (some centres undefined)
inhibition at 0.01 µM (RAW264.7 [3]): 50%
inhibition (RAW264.7 [2]): Active
inhibition (RAW264.7 [1]): Active
viability at 1 µM [4]: < 10%

SMILES: COC(=O)C(Cc1cnc[nH]1)NC(=O)[C@]12CCC(C)(C)C[C@H]1[C@H]1C(=O)C=C3[C@@]4(C)C=C(C#N)C(=O)C(C)(C)[C@@H]4CC[C@@]3(C)[C@]1(C)CC2 (some centres undefined)
inhibition (RAW264.7 [1]): inactive

SMILES: COC(=O)C(Cc1c[nH]c2ccccc12)NC(=O)[C@]12CCC(C)(C)C[C@H]1[C@H]1C(=O)C=C3[C@@]4(C)C=C(C#N)C(=O)C(C)(C)[C@@H]4CC[C@@]3(C)[C@]1(C)CC2 (some centres undefined)
inhibition (RAW264.7 [1]): inactive

SMILES: COC(=O)C(Cc1ccccc1)NC(=O)[C@]12CCC(C)(C)C[C@H]1[C@H]1C(=O)C=C3[C@@]4(C)C=C(C#N)C(=O)C(C)(C)[C@@H]4CC[C@@]3(C)[C@]1(C)CC2 (some centres undefined)
inhibition (RAW264.7 [1]): inactive

HO-1 expression induction [5]: Active
SMILES: COC(=O)C(NC(=O)[C@]12CCC(C)(C)C[C@H]1[C@H]1C(=O)C=C3[C@@]4(C)C=C(C#N)C(=O)C(C)(C)[C@@H]4CC[C@@]3(C)[C@]1(C)CC2)C(C)C (some centres undefined)
inhibition at 0.01 µM (RAW264.7 [3]): 50%
inhibition (RAW264.7 [2]): Active
inhibition (RAW264.7 [1]): Active
viability at 1 µM [4]: < 10%

HO-1 expression induction [5]: Active
SMILES: CCNC(=O)[C@]12CCC(C)(C)C[C@H]1[C@H]1C(=O)C=C3[C@@]4(C)C=C(C#N)C(=O)C(C)(C)[C@@H]4CC[C@@]3(C)[C@]1(C)CC2
inhibition (RAW264.7 [1]): Active

HO-1 expression induction [5]: Active
SMILES: COC(=O)C(C)NC(=O)[C@]12CCC(C)(C)C[C@H]1[C@H]1C(=O)C=C3[C@@]4(C)C=C(C#N)C(=O)C(C)(C)[C@@H]4CC[C@@]3(C)[C@]1(C)CC2 (some centres undefined)
inhibition at 0.01 µM (RAW264.7 [3]): 50%
inhibition (RAW264.7 [1]): Active
viability at 1 µM [4]: < 10%

SMILES: COC(=O)CC(NC(=O)[C@]12CCC(C)(C)C[C@H]1[C@H]1C(=O)C=C3[C@@]4(C)C=C(C#N)C(=O)C(C)(C)[C@@H]4CC[C@@]3(C)[C@]1(C)CC2)C(=O)OC (some centres undefined)
inhibition (RAW264.7 [1]): inactive

SMILES: COC(=O)C1CCCN1C(=O)[C@]12CCC(C)(C)C[C@H]1[C@H]1C(=O)C=C3[C@@]4(C)C=C(C#N)C(=O)C(C)(C)[C@@H]4CC[C@@]3(C)[C@]1(C)CC2 (some centres undefined)
inhibition (RAW264.7 [1]): inactive

SMILES: COC(=O)C(Cc1ccc(O)cc1)NC(=O)[C@]12CCC(C)(C)C[C@H]1[C@H]1C(=O)C=C3[C@@]4(C)C=C(C#N)C(=O)C(C)(C)[C@@H]4CC[C@@]3(C)[C@]1(C)CC2 (some centres undefined)
inhibition (RAW264.7 [1]): inactive
